Measured values reported in ChEMBL document CHEMBL5252552, “Defined concatenated α6α1β3γ2 GABAA receptor constructs reveal dual action of pyrazoloquinolinone allosteric modulators” (Bioorg Med Chem, 2019).

What was measured:
[1] = target: T1, Gamma-aminobutyric acid receptor subunit alpha-6/beta-3/gamma-2 (Rattus norvegicus) (UniProt P18508+P30191+P63079); experiment: Positive allosteric modulation of rat recombinant GABAA alpha6beta3alpha6-gamma2beta3 receptor expressed in Xenopus laevis oocytes assessed as maximal current at -80 mV holding potential under more potent phase in presence of GABA EC1 to 1.5 by two-electrode voltage-clamp assay relative to control; type: cell-based; details: Oocyte, filed as positive allosteric modulator
[2] = target: T1, Gamma-aminobutyric acid receptor subunit alpha-6/beta-3/gamma-2 (Rattus norvegicus); experiment: Positive allosteric modulation of rat recombinant GABAA alpha6beta3alpha6-gamma2beta3 receptor expressed in Xenopus laevis oocytes assessed as maximal current under less potent phase in presence of GABA EC1 to 1.5 by two-electrode voltage-clamp assay relative to control; type: cell-based; details: Oocyte, filed as positive allosteric modulator
[3] = target: T2, Gamma-aminobutyric acid receptor subunit alpha-1/alpha-6/beta-3/gamma-2 (Rattus norvegicus) (UniProt P18508+P30191+P62813+P63079); experiment: Positive allosteric modulation of rat recombinant GABAA gamma2beta3alpha1-beta3alpha6 receptor expressed in Xenopus laevis oocytes assessed as maximal current at -80 mV holding potential under more potent phase in presence of GABA EC1 to 1.5 by two-electrode voltage-clamp assay relative to control; type: cell-based; details: Oocyte
[4] = target: Gamma-aminobutyric acid receptor subunit alpha-6/beta-3/gamma-2 (Rattus norvegicus, UniProt P18508+P30191+P63079); experiment: (§1) Positive allosteric modulation of rat recombinant GABAA alpha6beta3gamma2 receptor expressed in Xenopus laevis oocytes assessed as increase in GABA-induced current amplitude at -80 mV holding potential under more potent phase in presence of GABA EC1 to 1.5 by two-electrode voltage-clamp assay; type: cell-based, Oocyte
Sequence of Gamma-aminobutyric acid receptor subunit alpha-6/beta-3/gamma-2 (P18508 whole entry): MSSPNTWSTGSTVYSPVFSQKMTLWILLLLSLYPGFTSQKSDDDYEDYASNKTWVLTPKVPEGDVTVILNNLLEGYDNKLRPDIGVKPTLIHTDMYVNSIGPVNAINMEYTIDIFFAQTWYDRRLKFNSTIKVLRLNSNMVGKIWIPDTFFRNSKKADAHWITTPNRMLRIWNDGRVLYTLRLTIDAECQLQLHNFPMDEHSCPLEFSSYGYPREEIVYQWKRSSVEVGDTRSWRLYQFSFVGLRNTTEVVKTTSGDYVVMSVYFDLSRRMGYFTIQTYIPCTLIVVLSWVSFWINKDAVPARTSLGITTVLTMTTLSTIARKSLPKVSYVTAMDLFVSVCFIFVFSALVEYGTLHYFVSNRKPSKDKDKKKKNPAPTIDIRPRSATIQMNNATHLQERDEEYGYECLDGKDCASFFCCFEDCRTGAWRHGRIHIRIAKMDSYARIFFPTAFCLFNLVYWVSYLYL
Sequence of Gamma-aminobutyric acid receptor subunit alpha-6/beta-3/gamma-2 (P30191 whole entry): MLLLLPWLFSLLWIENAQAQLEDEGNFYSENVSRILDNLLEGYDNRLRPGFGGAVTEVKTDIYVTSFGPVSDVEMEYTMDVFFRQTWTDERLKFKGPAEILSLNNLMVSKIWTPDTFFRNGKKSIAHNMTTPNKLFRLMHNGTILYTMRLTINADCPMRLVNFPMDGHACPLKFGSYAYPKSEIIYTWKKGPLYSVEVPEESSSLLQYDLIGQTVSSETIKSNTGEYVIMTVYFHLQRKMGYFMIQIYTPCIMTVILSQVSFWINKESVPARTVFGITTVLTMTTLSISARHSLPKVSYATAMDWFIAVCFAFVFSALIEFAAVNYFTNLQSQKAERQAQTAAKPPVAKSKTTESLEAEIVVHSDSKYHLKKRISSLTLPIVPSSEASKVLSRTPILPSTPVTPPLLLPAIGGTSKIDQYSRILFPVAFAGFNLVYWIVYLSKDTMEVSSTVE
Sequence of Gamma-aminobutyric acid receptor subunit alpha-6/beta-3/gamma-2 (P63079 whole entry): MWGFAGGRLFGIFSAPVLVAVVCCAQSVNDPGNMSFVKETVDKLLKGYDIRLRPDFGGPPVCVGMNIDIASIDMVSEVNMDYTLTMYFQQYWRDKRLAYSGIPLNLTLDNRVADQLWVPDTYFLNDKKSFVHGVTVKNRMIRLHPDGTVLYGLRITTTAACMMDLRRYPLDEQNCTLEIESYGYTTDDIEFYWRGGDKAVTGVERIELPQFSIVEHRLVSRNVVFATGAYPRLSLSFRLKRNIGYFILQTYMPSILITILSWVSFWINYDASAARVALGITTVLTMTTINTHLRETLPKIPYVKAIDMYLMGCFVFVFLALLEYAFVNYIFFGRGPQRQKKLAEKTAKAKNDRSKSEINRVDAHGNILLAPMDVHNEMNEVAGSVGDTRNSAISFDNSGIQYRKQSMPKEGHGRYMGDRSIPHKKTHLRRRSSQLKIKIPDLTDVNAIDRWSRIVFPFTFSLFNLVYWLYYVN

[5] = target: T1, Gamma-aminobutyric acid receptor subunit alpha-6/beta-3/gamma-2 (Rattus norvegicus); experiment: Positive allosteric modulation of rat recombinant GABAA alpha6beta3gamma2 receptor expressed in Xenopus laevis oocytes assessed as maximal current at -80 mV holding potential under less potent phase in presence of GABA EC1 to 1.5 by two-electrode voltage-clamp assay relative to control; type: cell-based; details: Oocyte, filed as positive allosteric modulator
[6] = target: T3, Gamma-aminobutyric acid receptor subunit alpha-1/beta-3/gamma-2 (Rattus norvegicus, UniProt P18508+P62813+P63079); experiment: as §1, with “alpha1beta3alpha1-gamma2beta3” for “alpha6beta3gamma2”, “less” for “more”; type: cell-based, Oocyte
T3 sequence (P18508 whole entry): as the sequence (P18508 whole entry) above
T3 sequence (P62813 whole entry): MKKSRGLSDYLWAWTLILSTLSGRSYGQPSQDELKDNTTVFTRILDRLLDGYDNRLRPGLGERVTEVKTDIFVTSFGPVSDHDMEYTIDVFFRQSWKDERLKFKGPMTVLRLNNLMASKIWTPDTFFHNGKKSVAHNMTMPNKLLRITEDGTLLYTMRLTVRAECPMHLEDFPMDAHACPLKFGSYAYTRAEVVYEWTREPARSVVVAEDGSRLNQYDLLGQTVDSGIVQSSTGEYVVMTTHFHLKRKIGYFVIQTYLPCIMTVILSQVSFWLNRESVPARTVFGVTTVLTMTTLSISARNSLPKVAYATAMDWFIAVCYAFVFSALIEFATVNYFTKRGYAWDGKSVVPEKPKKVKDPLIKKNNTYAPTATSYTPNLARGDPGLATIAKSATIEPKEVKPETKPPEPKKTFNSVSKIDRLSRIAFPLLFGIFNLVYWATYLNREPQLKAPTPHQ
T3 sequence (P63079 whole entry): as the sequence (P63079 whole entry) above

[7] = target: T3, Gamma-aminobutyric acid receptor subunit alpha-1/beta-3/gamma-2; experiment: Positive allosteric modulation of rat recombinant GABAA alpha1beta3gamma2 receptor expressed in Xenopus laevis oocytes assessed as increase in GABA-induced current amplitude at -80 mV holding potential under less potent phase in presence of GABA EC1 to 1.5 by two-electrode voltage-clamp assay; type: cell-based, Oocyte
[8] = target: T1, Gamma-aminobutyric acid receptor subunit alpha-6/beta-3/gamma-2 (Rattus norvegicus); experiment: Positive allosteric modulation of rat recombinant GABAA alpha6beta3alpha6-gamma2beta3 receptor expressed in Xenopus laevis oocytes assessed as maximal efficacy at -80 mV holding potential at 1 nM in presence of GABA EC1 to 1.5 by two-electrode voltage-clamp assay; type: cell-based; details: Oocyte
[9] = target: T1, Gamma-aminobutyric acid receptor subunit alpha-6/beta-3/gamma-2 (Rattus norvegicus); experiment: Positive allosteric modulation of rat recombinant GABAA alpha6beta3alpha6-gamma2beta3 receptor expressed in Xenopus laevis oocytes assessed as maximal efficacy at -80 mV holding potential at 100 nM in presence of GABA EC1 to 1.5 by two-electrode voltage-clamp assay; type: cell-based; details: Oocyte, filed as positive allosteric modulator
[10] = target: T1, Gamma-aminobutyric acid receptor subunit alpha-6/beta-3/gamma-2 (Rattus norvegicus); experiment: Positive allosteric modulation of rat recombinant GABAA alpha6beta3alpha6-gamma2beta3 receptor expressed in Xenopus laevis oocytes assessed as maximal efficacy at -80 mV holding potential at 30 uM in presence of GABA EC1 to 1.5 by two-electrode voltage-clamp assay; type: cell-based; details: Oocyte, filed as positive allosteric modulator
[11] = target: T4, Gamma-aminobutyric acid receptor subunit alpha-1/beta-3/gamma-2 (Rattus norvegicus) (UniProt P18508+P62813+P63079); experiment: Positive allosteric modulation of rat recombinant GABAA alpha1beta3alpha1-gamma2beta3 receptor expressed in Xenopus laevis oocytes assessed as maximal efficacy at -80 mV holding potential at 100 nM in presence of GABA EC1 to 1.5 by two-electrode voltage-clamp assay; type: cell-based; details: Oocyte
[12] = target: T4, Gamma-aminobutyric acid receptor subunit alpha-1/beta-3/gamma-2 (Rattus norvegicus); experiment: Positive allosteric modulation of rat recombinant GABAA alpha1beta3alpha1-gamma2beta3 receptor expressed in Xenopus laevis oocytes assessed as maximal efficacy at -80 mV holding potential at 300 nM in presence of GABA EC1 to 1.5 by two-electrode voltage-clamp assay; type: cell-based; details: Oocyte
[13] = target: T4, Gamma-aminobutyric acid receptor subunit alpha-1/beta-3/gamma-2 (Rattus norvegicus); experiment: Positive allosteric modulation of rat recombinant GABAA alpha1beta3alpha1-gamma2beta3 receptor expressed in Xenopus laevis oocytes assessed as maximal efficacy at -80 mV holding potential at 10 uM in presence of GABA EC1 to 1.5 by two-electrode voltage-clamp assay; type: cell-based; details: Oocyte, filed as positive allosteric modulator
[14] = target: T4, Gamma-aminobutyric acid receptor subunit alpha-1/beta-3/gamma-2 (Rattus norvegicus); experiment: Positive allosteric modulation of rat recombinant GABAA alpha1beta3gamma2 receptor expressed in Xenopus laevis oocytes assessed as maximal efficacy at -80 mV holding potential at 300 nM in presence of GABA EC1 to 1.5 by two-electrode voltage-clamp assay; type: cell-based; details: Oocyte
[15] = target: T4, Gamma-aminobutyric acid receptor subunit alpha-1/beta-3/gamma-2 (Rattus norvegicus); experiment: Positive allosteric modulation of rat recombinant GABAA alpha1beta3gamma2 receptor expressed in Xenopus laevis oocytes assessed as maximal efficacy at -80 mV holding potential at 3 uM in presence of GABA EC1 to 1.5 by two-electrode voltage-clamp assay; type: cell-based; details: Oocyte, filed as positive allosteric modulator
[16] = target: T4, Gamma-aminobutyric acid receptor subunit alpha-1/beta-3/gamma-2 (Rattus norvegicus); experiment: Positive allosteric modulation of rat recombinant GABAA alpha1beta3gamma2 receptor expressed in Xenopus laevis oocytes assessed as maximal efficacy at -80 mV holding potential at 30 uM in presence of GABA EC1 to 1.5 by two-electrode voltage-clamp assay; type: cell-based; details: Oocyte, filed as positive allosteric modulator
[17] = target: T2, Gamma-aminobutyric acid receptor subunit alpha-1/alpha-6/beta-3/gamma-2 (Rattus norvegicus); experiment: Positive allosteric modulation of rat recombinant GABAA gamma2beta3alpha1-beta3alpha6 receptor expressed in Xenopus laevis oocytes assessed as maximal efficacy at -80 mV holding potential at 1 nM in presence of GABA EC1 to 1.5 by two-electrode voltage-clamp assay; type: cell-based; details: Oocyte
[18] = target: T2, Gamma-aminobutyric acid receptor subunit alpha-1/alpha-6/beta-3/gamma-2 (Rattus norvegicus); experiment: Positive allosteric modulation of rat recombinant GABAA gamma2beta3alpha1-beta3alpha6 receptor expressed in Xenopus laevis oocytes assessed as maximal efficacy at -80 mV holding potential at 10 nM in presence of GABA EC1 to 1.5 by two-electrode voltage-clamp assay; type: cell-based; details: Oocyte
[19] = target: T2, Gamma-aminobutyric acid receptor subunit alpha-1/alpha-6/beta-3/gamma-2 (Rattus norvegicus); experiment: Positive allosteric modulation of rat recombinant GABAA gamma2beta3alpha1-beta3alpha6 receptor expressed in Xenopus laevis oocytes assessed as maximal efficacy at -80 mV holding potential at 30 nM in presence of GABA EC1 to 1.5 by two-electrode voltage-clamp assay; type: cell-based; details: Oocyte
[20] = target: T1, Gamma-aminobutyric acid receptor subunit alpha-6/beta-3/gamma-2 (Rattus norvegicus); experiment: Positive allosteric modulation of rat recombinant GABAA alpha6beta3gamma2 receptor expressed in Xenopus laevis oocytes assessed as maximal efficacy at -80 mV holding potential at 3 nM in presence of GABA EC1 to 1.5 by two-electrode voltage-clamp assay; type: cell-based; details: Oocyte
[21] = target: T1, Gamma-aminobutyric acid receptor subunit alpha-6/beta-3/gamma-2 (Rattus norvegicus); experiment: Positive allosteric modulation of rat recombinant GABAA alpha6beta3gamma2 receptor expressed in Xenopus laevis oocytes assessed as maximal efficacy at -80 mV holding potential at 30 nM in presence of GABA EC1 to 1.5 by two-electrode voltage-clamp assay; type: cell-based; details: Oocyte, filed as positive allosteric modulator
[22] = target: T1, Gamma-aminobutyric acid receptor subunit alpha-6/beta-3/gamma-2 (Rattus norvegicus); experiment: Positive allosteric modulation of rat recombinant GABAA alpha6beta3gamma2 receptor expressed in Xenopus laevis oocytes assessed as maximal efficacy at -80 mV holding potential at 300 nM in presence of GABA EC1 to 1.5 by two-electrode voltage-clamp assay; type: cell-based; details: Oocyte, filed as positive allosteric modulator
[23] = target: T1, Gamma-aminobutyric acid receptor subunit alpha-6/beta-3/gamma-2 (Rattus norvegicus); experiment: Positive allosteric modulation of rat recombinant GABAA alpha6beta3gamma2 receptor expressed in Xenopus laevis oocytes assessed as maximal efficacy at -80 mV holding potential at 10 uM in presence of GABA EC1 to 1.5 by two-electrode voltage-clamp assay; type: cell-based; details: Oocyte, filed as positive allosteric modulator

With `COc1ccc(-n2nc3c4ccc(Br)cc4[nH]cc-3c2=O)cc1` the %max [1] was 82%, the %max [2] was 657% and the %max [3] was 30%. For the same compound, the EC50 [4] was 1 nM, the %max [5] was 580% and the EC50 [6] was 10 µM. The EC50 [7] was 6 µM, the Efficacy [8] was 5% and the Efficacy [9] was 101%. It also gave an Efficacy [10] of 570%, an Efficacy [11] of 8% and an Efficacy [12] of 17%. It also gave an Efficacy [13] of 157%, an Efficacy [14] of 11% and an Efficacy [15] of 54%. It also gave an Efficacy [16] of 109%, an Efficacy [17] of 3% and an Efficacy [18] of 23%. For the same compound, the Efficacy [19] was 31%, the Efficacy [20] was 23% and the Efficacy [21] was 49%. For the same compound, the Efficacy [22] was 121% and the Efficacy [23] was 585%.
